Test results from PubChem BioAssay (NCI).
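Tested at 5 concentrations; 48 h exposure; 96-well plates; endpoints linearly interpolated, else capped at highest concentration. Abbreviation: GI50, concentration required for 50% inhibition of growth. TGI: total growth inhibition.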

How the values were obtained:
Assay in all cases: DTP human tumour cell line panel, 48 h
786-0 renal = system: 786-0 renal
A498 renal = system: A498 renal
A549 NSCLC = system: A549 NSCLC
ACHN renal = system: ACHN renal
BT-549 breast = system: BT-549 breast
CAKI-1 renal = system: CAKI-1 renal
CCRF-CEM leukemia = system: CCRF-CEM leukemia
COLO 205 colon = system: COLO 205 colon
DU-145 prostate = system: DU-145 prostate
EKVX NSCLC = system: EKVX NSCLC
HCT-116 colon = system: HCT-116 colon
HCT-15 colon = system: HCT-15 colon
HL-60(TB) leukemia = system: HL-60(TB) leukemia
HOP-62 NSCLC = system: HOP-62 NSCLC
HOP-92 NSCLC = system: HOP-92 NSCLC
HS 578T breast = system: HS 578T breast
HT29 colon = system: HT29 colon
IGROV1 ovarian = system: IGROV1 ovarian
K-562 leukemia = system: K-562 leukemia
KM12 colon = system: KM12 colon
LOX IMVI melanoma = system: LOX IMVI melanoma
M14 melanoma = system: M14 melanoma
MALME-3M melanoma = system: MALME-3M melanoma
MCF7 breast = system: MCF7 breast
MDA-MB-231 breast = system: MDA-MB-231 breast
MDA-MB-435 = system: MDA-MB-435
MOLT-4 leukemia = system: MOLT-4 leukemia
NCI-H226 lung = system: NCI-H226 lung
NCI-H23 lung = system: NCI-H23 lung
NCI-H460 lung = system: NCI-H460 lung
NCI-H522 lung = system: NCI-H522 lung
NCI/ADR-RES ovarian = system: NCI/ADR-RES ovarian
OVCAR-3 ovarian = system: OVCAR-3 ovarian
OVCAR-4 ovarian = system: OVCAR-4 ovarian
OVCAR-5 ovarian = system: OVCAR-5 ovarian
OVCAR-8 ovarian = system: OVCAR-8 ovarian
PC-3 prostate = system: PC-3 prostate
RPMI-8226 leukemia = system: RPMI-8226 leukemia
RXF 393 renal = system: RXF 393 renal
SF-268 CNS = system: SF-268 CNS
SF-295 CNS = system: SF-295 CNS
SF-539 CNS = system: SF-539 CNS
SK-MEL-2 melanoma = system: SK-MEL-2 melanoma
SK-MEL-28 melanoma = system: SK-MEL-28 melanoma
SK-MEL-5 melanoma = system: SK-MEL-5 melanoma
SK-OV-3 ovarian = system: SK-OV-3 ovarian
SN12C renal = system: SN12C renal
SNB-19 CNS = system: SNB-19 CNS
SNB-75 CNS = system: SNB-75 CNS
SR leukemia = system: SR leukemia
SW-620 colon = system: SW-620 colon
T-47D breast = system: T-47D breast
TK-10 renal = system: TK-10 renal
U251 CNS = system: U251 CNS
UACC-257 melanoma = system: UACC-257 melanoma
UACC-62 melanoma = system: UACC-62 melanoma
UO-31 renal = system: UO-31 renal

SMILES: CCOn1cc(C[C@@]2(O)C(=O)OC3[C@@H](O)CO[C@@]32O)c2ccccc21 (stereo partly specified)
- TGI (786-0 renal): > 100 µM
- TGI (A498 renal): 4.09 µM
- TGI (A549 NSCLC): > 100 µM
- TGI (ACHN renal): > 100 µM
- TGI (BT-549 breast): > 100 µM
- TGI (CAKI-1 renal): > 100 µM
- TGI (CCRF-CEM leukemia): > 100 µM
- TGI (COLO 205 colon): > 100 µM
- TGI (DU-145 prostate): > 100 µM
- TGI (EKVX NSCLC): > 100 µM
- TGI (HCT-116 colon): > 100 µM
- TGI (HCT-15 colon): > 100 µM
- TGI (HL-60(TB) leukemia): > 100 µM
- TGI (HOP-62 NSCLC): > 100 µM
- TGI (HOP-92 NSCLC): > 100 µM
- TGI (HS 578T breast): > 100 µM
- TGI (HT29 colon): > 100 µM
- TGI (IGROV1 ovarian): > 100 µM
- TGI (K-562 leukemia): > 100 µM
- TGI (KM12 colon): > 100 µM
- TGI (LOX IMVI melanoma): > 100 µM
- TGI (M14 melanoma): > 100 µM
- TGI (MALME-3M melanoma): > 100 µM
- TGI (MCF7 breast): > 100 µM
- TGI (MDA-MB-231 breast): > 100 µM
- TGI (MDA-MB-435): > 100 µM
- TGI (MOLT-4 leukemia): > 100 µM
- TGI (NCI-H226 lung): > 100 µM
- TGI (NCI-H23 lung): > 100 µM
- TGI (NCI-H460 lung): > 100 µM
- TGI (NCI-H522 lung): > 100 µM
- TGI (NCI/ADR-RES ovarian): > 100 µM
- TGI (OVCAR-3 ovarian): > 100 µM
- TGI (OVCAR-4 ovarian): > 100 µM
- TGI (OVCAR-5 ovarian): > 100 µM
- TGI (OVCAR-8 ovarian): > 100 µM
- TGI (PC-3 prostate): > 100 µM
- TGI (RPMI-8226 leukemia): > 100 µM
- TGI (RXF 393 renal): > 100 µM
- TGI (SF-268 CNS): > 100 µM
- TGI (SF-295 CNS): > 100 µM
- TGI (SF-539 CNS): > 100 µM
- TGI (SK-MEL-2 melanoma): > 100 µM
- TGI (SK-MEL-28 melanoma): > 100 µM
- TGI (SK-MEL-5 melanoma): > 100 µM
- TGI (SK-OV-3 ovarian): > 100 µM
- TGI (SN12C renal): > 100 µM
- TGI (SNB-19 CNS): > 100 µM
- TGI (SNB-75 CNS): > 100 µM
- TGI (SR leukemia): > 100 µM
- TGI (SW-620 colon): > 100 µM
- TGI (T-47D breast): > 100 µM
- TGI (TK-10 renal): > 100 µM
- TGI (U251 CNS): > 100 µM
- TGI (UACC-257 melanoma): > 100 µM
- TGI (UACC-62 melanoma): > 100 µM
- TGI (UO-31 renal): > 100 µM

SMILES: COc1ccc(-c2cc3cccc(OC)c3c(=O)o2)cc1OC
- GI50 (786-0 renal): 50.2 µM
- TGI (786-0 renal): > 100 µM
- GI50 (A498 renal): 81.7 µM
- TGI (A498 renal): > 100 µM
- GI50 (A549 NSCLC): 59.4 µM
- TGI (A549 NSCLC): > 100 µM
- GI50 (ACHN renal): 59.3 µM
- TGI (ACHN renal): > 100 µM
- GI50 (BT-549 breast): 0.636 µM
- TGI (BT-549 breast): 88 µM
- GI50 (CAKI-1 renal): 0.094 µM
- TGI (CAKI-1 renal): 32 µM
- GI50 (CCRF-CEM leukemia): 30.9 µM
- TGI (CCRF-CEM leukemia): > 100 µM
- GI50 (COLO 205 colon): 35.8 µM
- TGI (COLO 205 colon): > 100 µM
- GI50 (DU-145 prostate): 0.795 µM
- TGI (DU-145 prostate): > 100 µM
- GI50 (EKVX NSCLC): 0.83 µM
- TGI (EKVX NSCLC): 39.5 µM
- GI50 (HCT-116 colon): 29.6 µM
- TGI (HCT-116 colon): > 100 µM
- GI50 (HCT-15 colon): 23.4 µM
- TGI (HCT-15 colon): > 100 µM
- GI50 (HL-60(TB) leukemia): 76.2 µM
- TGI (HL-60(TB) leukemia): > 100 µM
- GI50 (HOP-62 NSCLC): 62.5 µM
- TGI (HOP-62 NSCLC): > 100 µM
- GI50 (HOP-92 NSCLC): 37.2 µM
- TGI (HOP-92 NSCLC): > 100 µM
- GI50 (HS 578T breast): 12.7 µM
- TGI (HS 578T breast): > 100 µM
- GI50 (HT29 colon): 8.49 µM
- TGI (HT29 colon): > 100 µM
- GI50 (IGROV1 ovarian): > 100 µM
- TGI (IGROV1 ovarian): > 100 µM
- GI50 (K-562 leukemia): 26.3 µM
- TGI (K-562 leukemia): > 100 µM
- GI50 (KM12 colon): 92.2 µM
- TGI (KM12 colon): > 100 µM
- GI50 (LOX IMVI melanoma): 11.5 µM
- TGI (LOX IMVI melanoma): > 100 µM
- GI50 (M14 melanoma): 93.9 µM
- TGI (M14 melanoma): > 100 µM
- GI50 (MALME-3M melanoma): > 100 µM
- TGI (MALME-3M melanoma): > 100 µM
- GI50 (MCF7 breast): 32 µM
- TGI (MCF7 breast): > 100 µM
- GI50 (MDA-MB-231 breast): 22.8 µM
- TGI (MDA-MB-231 breast): > 100 µM
- GI50 (MDA-MB-435): 3.22 µM
- TGI (MDA-MB-435): > 100 µM
- GI50 (MOLT-4 leukemia): 47.9 µM
- TGI (MOLT-4 leukemia): > 100 µM
- GI50 (NCI-H226 lung): 2.35 µM
- TGI (NCI-H226 lung): 86.5 µM
- GI50 (NCI-H23 lung): 47.9 µM
- TGI (NCI-H23 lung): > 100 µM
- GI50 (NCI-H460 lung): 31.1 µM
- TGI (NCI-H460 lung): > 100 µM
- GI50 (NCI-H522 lung): 48.6 µM
- TGI (NCI-H522 lung): > 100 µM
- GI50 (NCI/ADR-RES ovarian): 40.3 µM
- TGI (NCI/ADR-RES ovarian): > 100 µM
- GI50 (OVCAR-3 ovarian): 43.4 µM
- TGI (OVCAR-3 ovarian): > 100 µM
- GI50 (OVCAR-4 ovarian): > 100 µM
- TGI (OVCAR-4 ovarian): > 100 µM
- GI50 (OVCAR-5 ovarian): 85.5 µM
- TGI (OVCAR-5 ovarian): > 100 µM
- GI50 (OVCAR-8 ovarian): > 100 µM
- TGI (OVCAR-8 ovarian): > 100 µM
- GI50 (PC-3 prostate): 55.9 µM
- TGI (PC-3 prostate): > 100 µM
- GI50 (RPMI-8226 leukemia): 29.7 µM
- TGI (RPMI-8226 leukemia): > 100 µM
- GI50 (RXF 393 renal): 32 µM
- TGI (RXF 393 renal): > 100 µM
- GI50 (SF-268 CNS): 39.7 µM
- TGI (SF-268 CNS): > 100 µM
- GI50 (SF-295 CNS): 33.8 µM
- TGI (SF-295 CNS): > 100 µM
- GI50 (SF-539 CNS): 0.559 µM
- TGI (SF-539 CNS): 22.9 µM
- GI50 (SK-MEL-2 melanoma): > 100 µM
- TGI (SK-MEL-2 melanoma): > 100 µM
- GI50 (SK-MEL-28 melanoma): 44.4 µM
- TGI (SK-MEL-28 melanoma): > 100 µM
- GI50 (SK-MEL-5 melanoma): 4.14 µM
- TGI (SK-MEL-5 melanoma): 40.8 µM
- GI50 (SK-OV-3 ovarian): 46.2 µM
- TGI (SK-OV-3 ovarian): > 100 µM
- GI50 (SN12C renal): 19.7 µM
- TGI (SN12C renal): > 100 µM
- GI50 (SNB-19 CNS): 41.3 µM
- TGI (SNB-19 CNS): > 100 µM
- GI50 (SNB-75 CNS): 53.1 µM
- TGI (SNB-75 CNS): > 100 µM
- GI50 (SR leukemia): 0.436 µM
- TGI (SR leukemia): > 100 µM
- GI50 (SW-620 colon): 40 µM
- TGI (SW-620 colon): > 100 µM
- GI50 (T-47D breast): 28.3 µM
- TGI (T-47D breast): > 100 µM
- GI50 (TK-10 renal): > 100 µM
- TGI (TK-10 renal): > 100 µM
- GI50 (U251 CNS): 12.4 µM
- TGI (U251 CNS): > 100 µM
- GI50 (UACC-257 melanoma): 92.8 µM
- TGI (UACC-257 melanoma): > 100 µM
- GI50 (UACC-62 melanoma): 0.661 µM
- TGI (UACC-62 melanoma): > 100 µM
- GI50 (UO-31 renal): 95.4 µM
- TGI (UO-31 renal): > 100 µM
